Data reported in patent US20240158446A1, “CYCLIC COMPOUND HAVING SELECTIVE INHIBITORY ACTION ON KRAS OVER HRAS AND NRAS” (CHUGAI SEIYAKU KABUSHIKI KAISHA, priority 2021, published 2024).
Like-named read-outs stand apart in the source and are kept apart here. Where a SMILES comes first, the peptide text is derived from it. Bridges are numbered along the chain shown (N, C = ends). [ ]: non-standard residue; d: D form. The star is where a group is joined. hPhe(3,5-F2-4-CF3) = N[C@@H](CCc1cc(F)c(C(F)(F)F)c(F)c1)C(=O)O; hPhe(3-Cl-4-CF3) = N[C@@H](CCc1ccc(C(F)(F)F)c(Cl)c1)C(=O)O; NPrPhe(4-CF3) = CCCN[C@@H](Cc1ccc(C(F)(F)F)cc1)C(=O)O; Pro(4-spirocPr) = O=C(O)[C@@H]1CC2(CC2)CN1; NMeGly(cPent) = CN[C@H](C(=O)O)C1CCCC1; Pro(4,4-F2) = O=C(O)[C@@H]1CC(F)(F)CN1; NMeD = CN[C@@H](CC(=O)O)C(=O)O; NMeL = CN[C@@H](CC(C)C)C(=O)O; αMeS = C[C@](N)(CO)C(=O)O; Morpholide = C1CN(*)CCO1; Ac5c = NC1(C(=O)O)CCCC1; Aze = O=C(O)[C@@H]1CCN1; Ac4c = NC1(C(=O)O)CCC1; Aib = CC(C)(N)C(=O)O; Sar = CNCC(=O)O; tBu = CC(C)(C)*

Columns and labels:
[1] = molecular target: GDP-bound KRAS wild-type protein (Homo sapiens, UniProt P01116); assay: Binding to KRAS by surface plasmon resonance (SPR), Single Cycle Kinetics; settings: GDP-bound KRAS wild-type protein, read-out: KRAS KD
Chain of GDP-bound KRAS wild-type protein (P01116 whole entry): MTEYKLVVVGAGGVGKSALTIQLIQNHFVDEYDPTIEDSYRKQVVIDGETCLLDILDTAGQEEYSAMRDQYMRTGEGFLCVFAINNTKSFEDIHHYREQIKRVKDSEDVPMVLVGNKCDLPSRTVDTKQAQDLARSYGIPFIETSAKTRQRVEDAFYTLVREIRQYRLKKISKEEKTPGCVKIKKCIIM

[2] = molecular target: GDP-bound NRAS wild-type protein (Homo sapiens, UniProt P01111); assay: Binding to NRAS by surface plasmon resonance (SPR), Single Cycle Kinetics; settings: for NRAS/KRAS (ratio of KD value with respect to NRAS to KD value with respect to KRAS) / NRAS/KRAS (ratio of KD value for NRAS to KD value for KRAS): SPR, GDP-bound NRAS wild-type protein vs GDP-bound KRAS wild-type protein
Chain of GDP-bound NRAS wild-type protein (P01111 whole entry): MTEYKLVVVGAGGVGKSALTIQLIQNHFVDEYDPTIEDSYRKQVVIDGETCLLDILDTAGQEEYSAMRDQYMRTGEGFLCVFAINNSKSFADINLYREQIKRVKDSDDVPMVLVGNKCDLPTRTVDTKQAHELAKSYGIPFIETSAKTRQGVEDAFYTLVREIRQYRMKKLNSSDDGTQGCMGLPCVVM

[3] = molecular target: GDP-bound HRAS wild-type protein (Homo sapiens, UniProt P01112); assay: Binding to HRAS by surface plasmon resonance (SPR), Single Cycle Kinetics; settings: for HRAS/KRAS (ratio of KD value with respect to HRAS to KD value with respect to KRAS) / HRAS/KRAS (ratio of KD value for HRAS to KD value for KRAS): SPR, GDP-bound HRAS wild-type protein vs GDP-bound KRAS wild-type protein
Chain of GDP-bound HRAS wild-type protein (P01112 whole entry): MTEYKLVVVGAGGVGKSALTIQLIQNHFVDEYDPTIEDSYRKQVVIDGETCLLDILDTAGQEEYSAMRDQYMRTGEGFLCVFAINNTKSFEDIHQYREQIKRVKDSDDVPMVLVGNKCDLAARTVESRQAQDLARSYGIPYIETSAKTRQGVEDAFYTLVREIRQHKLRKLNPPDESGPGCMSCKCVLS

[4] = SPR Single Cycle Kinetics, 1:1 binding model

Row | SMILES | Kd [1, 4] [nM] | NRAS/KRAS (ratio of KD value with respect to NRAS to KD value with respect to KRAS) [2] | HRAS/KRAS (ratio of KD value with respect to HRAS to KD value with respect to KRAS) [3] | Kd ([1]; SPR, Single Cycle Kinetics) [nM] | NRAS/KRAS (ratio of KD value for NRAS to KD value for KRAS) [2] | HRAS/KRAS (ratio of KD value for HRAS to KD value for KRAS) [3] | NRAS/KRAS (ratio of KD value with respect to GDP-bound NRAS wild-type protein to KD value with respect to KRAS) ([2]; SPR KD ratio NRAS/KRAS, class symbols) | HRAS/KRAS (ratio of KD value with respect to GDP-bound HRAS wild-type protein to KD value with respect to KRAS) ([3]; SPR KD ratio HRAS/KRAS, class symbols)
1 | CCCN1C(=O)[C@@H]2CCN2C(=O)CN(C)C(=O)[C@H]([C@@H](C)CC)NC(=O)[C@H](CC(C)C)N(C)C(=O)C[C@@H](C(=O)N2CCOCC2)N(C)C(=O)[C@H](C2CCCC2)N(C)C(=O)C2(CCC2)NC(=O)[C@@H]2CC(F)(F)CN2C(=O)[C@H](CCc2ccc(C(F)(F)F)c(Cl)c2)NC(=O)CN(C)C(=O)[C@@H]1Cc1ccc(C(F)(F)F)cc1 [PP0409] ([NMeL]I[Sar][Aze][NPrPhe(4-CF3)][Sar][hPhe(3-Cl-4-CF3)][Pro(4,4-F2)][Ac4c][NMeGly(cPent)][NMeD]-Morpholide; lactam N-11) | 0.056 | C (A compound having a KD ratio of 0.1 or more and less than 3 is denoted as C) | C (A compound having a KD ratio of 0.1 or more and less than 3 is denoted as C) | – | – | – | – | –
2 | CCCO[C@@H]1C[C@H]2C(=O)NC3(CC(C)(C)C3)C(=O)N(C)[C@@H](C(CC)CC)C(=O)N(C)[C@H](C(=O)N(C)C)CC(=O)N(C)[C@H]3CCCCc4ccc(cc4)C[C@@H](C(=O)N(C)CC(=O)N[C@@H](CCc4ccc(C(F)(F)F)c(OC)c4)C(=O)N2C1)N1CC/C=C\C[C@@H](C1=O)N(C)C(=O)CN(C)C(=O)[C@H]([C@@H](C)CC)NC3=O [PP3038] | – | – | – | 0.15 | A (a compound having 10 or more and less than 20 is denoted as A) | A (a compound having 10 or more and less than 20 is denoted as A) | – | –
3 | CCCN1C(=O)[C@@H]2CCN2C(=O)CN(C)C(=O)[C@H]([C@@H](C)CC)NC(=O)[C@H](CC(C)C)N(C)C(=O)C[C@@H](C(=O)N2CCOCC2)N(C)C(=O)[C@H](C2CCCC2)N(C)C(=O)[C@](C)(COC(C)(C)C)NC(=O)[C@@H]2CCCN2C(=O)[C@H](CCc2cc(F)c(C(F)(F)F)c(F)c2)NC(=O)CN(C)C(=O)[C@@H]1Cc1ccc(C(F)(F)F)cc1 [PP0800] ([NMeL]I[Sar][Aze][NPrPhe(4-CF3)][Sar][hPhe(3,5-F2-4-CF3)]P[αMeS](tBu)[NMeGly(cPent)][NMeD]-Morpholide; lactam N-11) | 2.7 | C (A compound having a KD ratio of 0.1 or more and less than 3 is denoted as C) | B (a compound having 3 or more and less than 10 is denoted as B) | – | – | – | – | –
4 | CC[C@H](C)[C@@H]1NC(=O)[C@H](CC(C)C)N(C)C(=O)C[C@@H](C(=O)N2CCOCC2)N(C)C(=O)[C@H](C2CCCC2)N(C)C(=O)C2(CCCC2)NC(=O)[C@@H]2CCCN2C(=O)[C@H](CCc2cc(F)c(C(F)(F)F)c(F)c2)NC(=O)CN(C)C(=O)[C@H](Cc2ccc(C(F)(F)F)cc2)N2CCCC[C@@H](C2=O)N(C)C(=O)[C@H](C)NC1=O [PP0543] | 1 | B (a compound having 3 or more and less than 10 is denoted as B) | B (a compound having 3 or more and less than 10 is denoted as B) | – | – | – | – | –
5 | CCC(CC)[C@H]1C(=O)N(C)[C@H](C(=O)N(C)C)CC(=O)N(C)[C@@H](COC)C(=O)N[C@@H]([C@@H](C)CC)C(=O)N(C)CC(=O)N(C)[C@H]2C/C=C\CCN(C2=O)[C@@H](Cc2ccc(C(F)(F)F)cc2)C(=O)N(C)CC(=O)N[C@@H](CCc2cc(F)c(C(F)(F)F)c(F)c2)C(=O)N2CCCC[C@H]2C(=O)NC2(CC(C)(C)C2)C(=O)N1C [PP2916] | 1.3 | – | – | – | – | – | A (a compound having 10 or more and less than 20 is denoted as A) | A (a compound having 10 or more and less than 20 is denoted as A)
6 | CCO[C@@H]1C[C@H]2C(=O)NC3(CCC3)C(=O)N(C)[C@@H](C3CCCC3)C(=O)N(C)[C@H](C(=O)N3CCOCC3)CC(=O)N(C)[C@@H](CC(C)C)C(=O)N[C@@H]([C@@H](C)CC)C(=O)N(C)CC(=O)N(C)[C@H]3C[C@@H](C)CCN(C3=O)[C@@H](Cc3ccc(C(F)(F)F)cc3)C(=O)N(C)CC(=O)N[C@@H](CCc3cc(F)c(C(F)(F)F)c(F)c3)C(=O)N2C1 [PP1025] | – | – | – | 0.056 | C (A compound having a KD ratio of 0.1 or more and less than 3 is denoted as C) | B (a compound having 3 or more and less than 10 is denoted as B) | – | –
7 | CCCN1C(=O)CN(C)C(=O)CN(C)C(=O)[C@H]([C@@H](C)CC)NC(=O)[C@H](CC(C)C)N(C)C(=O)C[C@@H](C(=O)N2CCOCC2)N(C)C(=O)[C@H](C2CCCC2)N(C)C(=O)C(C)(C)NC(=O)[C@@H]2CCCN2C(=O)[C@H](CCc2ccc(C(F)(F)F)c(Cl)c2)NC(=O)CN(C)C(=O)[C@@H]1Cc1ccc(C(F)(F)F)cc1 [PP0230] ([NMeL]I[Sar][Sar][NPrPhe(4-CF3)][Sar][hPhe(3-Cl-4-CF3)]P[Aib][NMeGly(cPent)][NMeD]-Morpholide; lactam N-11) | 0.39 | – | – | – | B (a compound having 3 or more and less than 10 is denoted as B) | C (A compound having a KD ratio of 0.1 or more and less than 3 is denoted as C) | – | –
8 | CCO[C@@H]1C[C@H]2C(=O)NC3(CC(C)(C)C3)C(=O)N(C)[C@@H](C(CC)CC)C(=O)N(C)[C@H](C(=O)N(C)C)CC(=O)N(C)[C@@H](COC)C(=O)N[C@@H]([C@@H](C)CC)C(=O)N(C)CC(=O)N(C)[C@H]3C/C=C\CCN(C3=O)[C@@H](Cc3ccc(C(F)(F)F)cc3)C(=O)N(C)CC(=O)N[C@@H](CCc3ccc(C(F)(F)F)c(Cl)c3)C(=O)N2C1 [PP2126] | – | – | – | 0.23 | A (a compound having 10 or more and less than 20 is denoted as A) | B (a compound having 3 or more and less than 10 is denoted as B) | – | –
9 | CCCN1C(=O)CN(C)C(=O)CN(C)C(=O)[C@H]([C@@H](C)CC)NC(=O)[C@H](CC(C)C)N(C)C(=O)C[C@@H](C(=O)N2CCOCC2)N(C)C(=O)[C@H](C2CCCC2)N(C)C(=O)C2(CCCC2)NC(=O)[C@@H]2CC3(CC3)CN2C(=O)[C@H](CCc2ccc(C(F)(F)F)c(Cl)c2)NC(=O)CN(C)C(=O)[C@@H]1Cc1ccc(C(F)(F)F)cc1 [PP0261] ([NMeL]I[Sar][Sar][NPrPhe(4-CF3)][Sar][hPhe(3-Cl-4-CF3)][Pro(4-spirocPr)][Ac5c][NMeGly(cPent)][NMeD]-Morpholide; lactam N-11) | 0.14 | – | – | – | B (a compound having 3 or more and less than 10 is denoted as B) | C (A compound having a KD ratio of 0.1 or more and less than 3 is denoted as C) | – | –
10 | CCO[C@@H]1C[C@H]2C(=O)NC3(CC(C)(C)C3)C(=O)N(C)[C@@H](C(CC)CC)C(=O)N(C)[C@H](C(=O)N3CCCC3)CC(=O)N(C)[C@@H](COC)C(=O)N[C@@H]([C@@H](C)CC)C(=O)N(C)CC(=O)N(C)[C@H]3C/C=C\CCN(C3=O)[C@@H](Cc3ccc(C(F)(F)F)cc3)C(=O)N(C)CC(=O)N[C@@H](CCc3ccc(C(F)(F)F)c(OC)c3)C(=O)N2C1 [PP2159] | – | – | – | 0.33 | AA (a compound having 20 or more is denoted as AA) | A (a compound having 10 or more and less than 20 is denoted as A) | – | –
11 | CCO[C@@H]1C[C@H]2C(=O)NC3(CCC3)C(=O)N(C)[C@@H](C3CCCC3)C(=O)N(C)[C@H](C(=O)N(C)C)CC(=O)N(C)[C@@H](CC(C)C)C(=O)N[C@@H]([C@@H](C)CC)C(=O)N(C)CC(=O)N(C)[C@H]3CCCCN(C3=O)[C@@H](Cc3ccc(C(F)(F)F)cc3)C(=O)N(C)CC(=O)N[C@@H](CCc3cc(F)c(C(F)(F)F)c(F)c3)C(=O)N2C1 [PP0580] | 0.015 | C (A compound having a KD ratio of 0.1 or more and less than 3 is denoted as C) | C (A compound having a KD ratio of 0.1 or more and less than 3 is denoted as C) | – | – | – | – | –
12 | CCO[C@@H]1C[C@H]2C(=O)N[C@@]3(C)CCCCCCC[C@@H](C(=O)N[C@@H]([C@@H](C)CC)C(=O)N(C)CC(=O)N(C)[C@H]4CCCCN(C4=O)[C@@H](Cc4ccc(C(F)(F)F)cc4)C(=O)N(C)CC(=O)N[C@@H](CCc4cc(F)c(C(F)(F)F)c(F)c4)C(=O)N2C1)N(C)C(=O)C[C@@H](C(=O)N1CCOCC1)N(C)C(=O)[C@H](C1CCCC1)N(C)C3=O [PP0993] | – | – | – | 1.4 | B (a compound having 3 or more and less than 10 is denoted as B) | B (a compound having 3 or more and less than 10 is denoted as B) | – | –
13 | CCCN1C(=O)CN(C)C(=O)CNC(=O)[C@H]([C@@H](C)CC)NC(=O)[C@H](CC(C)C)N(C)C(=O)C[C@@H](C(=O)N(C)C)N(C)C(=O)[C@H](C2CCCC2)N(C)C(=O)C2(CCCC2)NC(=O)[C@@H]2CCCN2C(=O)[C@H](CCc2ccc(C(F)(F)F)c(Cl)c2)NC(=O)CN(C)C(=O)[C@@H]1Cc1ccc(C(F)(F)F)cc1 [PP0417] ([NMeL]IG[Sar][NPrPhe(4-CF3)][Sar][hPhe(3-Cl-4-CF3)]P[Ac5c][NMeGly(cPent)][NMeD]-NMe2; lactam N-11) | 0.074 | B (a compound having 3 or more and less than 10 is denoted as B) | C (A compound having a KD ratio of 0.1 or more and less than 3 is denoted as C) | – | – | – | – | –
